Test results reported in patent publication US3959077A (priority 1972, dated 1976).
Read-outs that look alike come from different tables or passages of the source.

What was measured:
[1] = tested on: binding enzyme exhibiting Na-K-ATPase activity; experiment: enzymatic isotope displacement assay: displacement of H^3 ouabain from the binding enzyme; design: species or system guinea pig; details: 0, 2.5, 5, 10, 20 Ng (or ug of digitalis leaf) per 50 μl; FIG. 4
Protocol: The serum extract and aqueous buffered mixtures having known concentrations of cardiac glycosides (hereinafter referred to as standard samples) are incubated with aqueous buffered mixtures containing the novel binding enzyme of the present invention in the presence of radioactive isotope cardiac glycoside, magnesium and sodium ions, ATP a buffering agent and optionally, but preferably, a heavy metal chelating agent. It is preferably that potassium be eliminated from the reagents to optimize the sensitivity of the assay. Ten microliters of the extract are sufficient for the incubation, although smaller and larger amounts may be employed. The binding enzyme is prepared by reacting a binding enzyme precursor or binding material (described below) with a high energy phosphate compound such as adenosine triphosphate (ATP), adenosine diphosphate (ADP), guanosine triphosphate (GTP), guanosine diphosphate (GDP) and the like. The reaction is preferably conducted in the presence of magnesium and/or sodium, preferably both. The reaction is conveniently carried out in the incubation or displacement step reaction mixture. About 4 to 100 micromoles of the high energy phosphate compound are reacted with each amount of the binding enzyme precursor prepared from one gram of animal tissue; although lesser or greater amounts of a high energy phosphate compound may be used. […]
In the above assay, the binding enzyme binds tritiated ouabain in the presence of Na and Mg. […] After centrifugation, the unbound H^3 ouabain in the supernatant fraction is counted by liquid scintillation and compared with known counts for standard concentrations of digoxin. An increase in supernatant radioactivity indicates uptake of digoxin or other cardiac glycoside at the expense of tritiated ouabain. […]
A solution of 250,000 Ng (nanograms) of digoxin per ml of methanol is gravimetrically prepared. […] 50ul of each supernatant is then counted by liquid scintillation. […]

clinical = assay type: in vivo, human
Protocol: A person was admitted to this center 3 hours after having ingested 100 tablets of 0.1mg of digitoxin. They had vomited once. Physical examination was unrevealing. […] The P-R interval was 0.24 seconds. Serum was obtained for assay, urine collection was begun, and vigorous gastric lavage was instituted.
Apparent serum digitoxin on admission was 51.0 Ng/ml, a value close to that of another patient whose atrial fibrillation was under satisfactory control on digitoxin 0.1mg/day. […] The results from both the serum and gastric material were in the hands of ward personnel within 3 hours.
On the basis of this assay information, especially the findings from the gastric material, it was decided by those caring for the patient that they might just have passed the stage where serum levels were highest. Since they were not severe, and since only mild AV block was present, it was felt that they might do well subsequently without further intervention. They were carefully watched, and in fact recovered without further therapy. […]. Four control urine specimens and six specimens at gastric contents from persons not receiving any digitalis gave negative results.

[2] = cited from earlier work
[3] = serum cardiac glycoside levels in patients, measured with the present assay; assay type: in vivo, human; details: 21 patients with arrhythmias on digoxin therapy; serum drawn at least 6 hours after last dose
Protocol: Digoxin is extracted from patient serum or from plasma as follows: 5ml of serum or plasma is shaken for 30 seconds with 30ml of Chloroform in a 40ml glass-stoppered conical centrifuge tube, and centrifuged for 2 minutes at 1800 rpm (750 × g at tip). The milky top layer and fatty plug are removed with a teflon-tipped aspirator. The bottom chloroform layer is decanted into another 40ml centrifuge tube and evaporated to dryness in 3 to 5 minutes on a Buchler Evapomixer at 60°C. under vacuum. The digoxin thus extracted is rinsed down to the bottom of the tube with 1ml of ethyl ether and evaporated to dryness in a 50°C. water bath under a stream of filtered air.
. The sample is mixed on a Vari-whirl vortex mixer for 20 seconds at full speed and centrifuged for 3 minutes at 1800 rpm. The top toluene layer is removed with a narrow, drawn-out pasteur pipet, and discarded. Duplicate 50μl tris aliquots of the bottom tris layer are then assayed in the same manner as for the standards described in Example 3. No quench correction is required. Only raw 1 or 2 minute counts need be used and the counts of duplicate aliquots are averaged. The amount of digoxin found in each aliquot is obtained by comparison with that day's standard curve.
Serum digoxin levels were measured in 83 nontoxic patients on the medical wards of the Los Angeles County-University of Southern California Medical Center. […]

[4] = cited from earlier work; remark: listed apart in the source
antibody = details: cited from earlier work

SMILES	displaced H^3 ouabain from the enzyme (potency) [1]	cardiac glycosides in gastric lavage material, equivalent of digitoxin (clinical; aliquot of 4 liters of lavage material)	concentration at 3 h (clinical; human, in vivo, po, 3 hours after ingestion of 100 tablets of 0.1 mg, read-out: apparent serum digitoxin on admission)	concentration at 24 h (clinical; human, in vivo, po, first subsequent day, read-out: subsequent daily serum digitoxin level)	concentration at 48 h (clinical; human, in vivo, po, second subsequent day, read-out: subsequent daily serum digitoxin level)	concentration at 24 h (clinical; human, in vivo, po, spot urine, first of the two days after admission, read-out: apparent digitoxin concentration in urine)	concentration at 48 h (clinical; human, in vivo, po, spot urine, second of the two days after admission, read-out: apparent digitoxin concentration in urine)	concentration at 72 h (clinical; human, in vivo, po, third subsequent day, read-out: subsequent daily serum digitoxin level)	amount removed by lavage (clinical; of the 10 mg ingested)	reported therapeutic serum levels relative to those of digoxin [2]	average serum level (1 S.D.) [3]	Risk of Arrhythmias ([4]; 1.4 nanograms per ml of blood serum)	Risk of Arrhythmias ([4]; 2 nanograms per ml of blood serum)	Risk of Arrhythmias ([4]; 2.9 nanograms per ml of blood serum)	Risk of Arrhythmias ([4]; 4 nanograms per ml of blood serum)	Risk of Arrhythmias ([4]; 5 nanograms per ml of blood serum)	specificity of the immunoassay for digoxin over digitoxin (antibody)	average toxic level by immunoassay (antibody; toxic patients, serum digoxin)
C[C@@H]1O[C@@H](O[C@H]2C[C@@H](O)[C@]3(CO)[C@H]4[C@H](O)C[C@]5(C)[C@@H](C6=CC(=O)OC6)CC[C@]5(O)[C@@H]4CC[C@]3(O)C2)[C@H](O)[C@H](O)[C@H]1O [ouabain]	approximately equal potency	–	–	–	–	–	–	–	–	–	–	–	–	–	–	–	–	–
C[C@H]1O[C@@H](O[C@H]2[C@@H](O)C[C@H](O[C@H]3[C@@H](O)C[C@H](O[C@H]4CC[C@@]5(C)[C@H](CC[C@@H]6[C@@H]5CC[C@]5(C)[C@@H](C7=CC(=O)OC7)CC[C@]65O)C4)O[C@@H]3C)O[C@@H]2C)C[C@H](O)[C@@H]1O [digitoxin]	approximately equal potency	1.2 µg/mL	51 ng/mL	41 ng/mL	31.6 ng/mL	848 ng/mL	512 ng/mL	24.4 ng/mL	4.8 mg	10 to 20 times	–	–	–	–	–	–	–	–
C[C@H]1O[C@@H](O[C@H]2[C@@H](O)C[C@H](O[C@H]3[C@@H](O)C[C@H](O[C@H]4CC[C@@]5(C)[C@H](CC[C@@H]6[C@@H]5C[C@@H](O)[C@]5(C)[C@@H](C7=CC(=O)OC7)CC[C@]65O)C4)O[C@@H]3C)O[C@@H]2C)C[C@H](O)[C@@H]1O [digoxin]	approximately equal potency	–	–	–	–	–	–	–	–	–	3.10 ± 0.76 ng/mL	about 10%	about 25%	about 50%	about 66%	about 80%	10 fold	3.3 ± 1.5 ng/mL
